Source: patent US20090143279A1 (priority 2007, published 2009)
Where two headings read alike, the source gives them in different places.

How the values were obtained:
Atp5a1 = experiment: Quantitative PCR of Atp5a1 (nuOXPHOS) expression; format: cell-based, mouse; details: for increase of Atp5a1 expression: compound alone, FIG. 6d
Method: (§1) (a) Compounds indicated in FIG. 4 were retested at 20 nM, 200 nM, 2 μM and 20 μM. Gene expression levels are represented as a row-normalized heat map, with negative controls (DMSO treatment) and positive controls (PGC-1α treatment) shown. Dose-response curves for ROS levels and viability are also provided, where the y-axis is the composite Z-score. Shaded area indicates the noise envelope (P<0.05). Data shown are the results of four biological replicates per concentration. […] (c) Quantitative PCR measurement of Ppargc1a gene expression, in response to either DMSO alone (Con), 5 μM deoxysappanone B (deo) or 1 μM mebendazole (meb). (d) Quantitative PCR measurement of the nuclear OXPHOS gene Atp5a1. Cells were either treated with compound alone (black bars) or in combination with […] of the ERRa inverse agonist XCT790 (gray bars). (e) Quantitative PCR measurement of Sod2, which encodes the ROS scavenger MnSOD, as in (d). Means and s.d. of expression data are the result of four biological replicates.
(§2) FIG. 8 show measurements of the coupling between nuclear and mitochondrial OXPHOS gene expression. (a) A two-dimensional plot of the composite Z-scores for nuOXPHOS and mtOXPHOS expression is shown. (b) Row-normalized heat map displaying the top 15 compounds in each quadrant (I-IV). Heat map of nuOXPHOS and mtOXPHOS expression is shown along with ATP levels. (c) Real-time PCR validation of select compounds at the indicated doses, using Atp5a1 (nuOXPHOS) and mt-Co1 (mtOXPHOS) normalized to Hprt1 (internal control). Values indicate average fold change from mock-treated (DMSO) wells ±s.d. in four biological replicates.
(§3) Gene expression. […]. The cDNA was then used for real-time PCR quantification of products for mouse Atp5a1 (Mm00431960_ml), Sod2 (MnSOD; Mm01313000_m1) and Ppargc1a (Mm00447183_m1), with Hprt1 (Mm03024075_m1) serving as an internal control, using TaqMan gene-expression assays (Applied Biosystems).

Ppargc1a = experiment: Quantitative PCR of Ppargc1a expression; format: cell-based, mouse; details: 5 μM deoxysappanone B or 1 μM mebendazole, FIG. 6c
Method: as §1, §3

cytochrome c = format: cell-based, mouse
nuOXPHOS transcripts = format: cell-based, mouse
reactive oxygen species = format: cell-based, mouse; details: for ROS levels: primary screen, in words
[1] = tested on: mitochondrial membrane potential; format: cell-based, mouse
mtOXPHOS transcripts = format: cell-based, mouse
OXPHOS gene expression = format: cell-based, mouse; details: for OXPHOS expression: primary screen, in words
[2] = tested on: cellular dehydrogenase activity
Sod2 = experiment: Quantitative PCR of Sod2 (MnSOD) expression; format: cell-based, mouse; details: in combination with compound, FIG. 6e
Method: as §1, §3

microtubules = experiment: Tubulin immunofluorescence; format: cell-based, mouse; details: C2C12 myotubes, 48 hours, 10 nM to 10 μM, FIG. 7
Method: Tubulin immunofluorescence. […] Cells were washed once in 50 μl PBSTB2 (PBS with 0.1% (vol/vol) Tween-20 and 2% (wt/vol) BSA) and blocked in PBSTB2 for 1 h at room temperature or overnight at 4° C. Cells were incubated with an anti-α-tubulin (Sigma-Aldrich) antibody, 1:1,000 in PBSTB2, for 1 h at room temperature, and then washed three times with PBSTB2. […] Cells were visualized using an automated microscope (IX-Micro, Molecular Devices).

mt-Co1 = experiment: Real-time PCR of mt-Co1 (mtOXPHOS) expression; format: cell-based, mouse; details: 1 μM, FIG. 8c
Description: as §2, §3

[3] = 13.54 μM, composite Z-score vs DMSO
[4] = 20 μM, composite Z-score vs DMSO
[5] = Table 3, differentiated C2C12 myotubes, 48 h treatment, composite Z-score vs DMSO
[6] = retest at 20 nM to 20 μM, FIG. 6a
[7] = normalized composite Z-score vs mock-treated (DMSO) wells, Conc 20 μM
[8] = Table 7, C2C12 myotubes, 48 h, composite Z-score
[9] = Table 6, C2C12 myotubes, 48 h, composite Z-score
[10] = composite Z-score vs DMSO, Conc 20 μM
[11] = composite Z-score vs DMSO, Conc 14.22 μM
[12] = composite Z-score vs DMSO wells, Conc 20 μM

SMILES: COC(=O)Nc1nc2ccc(C(=O)c3ccccc3)cc2[nH]1 [mebendazole, methyl[5-benzoyl-benzimidazol-2-carbamate], reference compound]
- increase of Atp5a1 expression (Atp5a1): 20%
- expression of Ppargc1α (Ppargc1a): approximately threefold
- cyt c (cytochrome c; [3]): −0.685
- cyt c (cytochrome c; [4]): −1.473
- nucOX (nuOXPHOS transcripts; [3]): −0.200
- nucOX (nuOXPHOS transcripts; [4]): 1.212
- ROS (reactive oxygen species; [3]): −0.791
- ROS (reactive oxygen species; [4]): −1.003
- ROS Zscore (reactive oxygen species; [5]): −1.003
- ROS levels (reactive oxygen species): suppressing ROS levels
- dose at which ROS levels decreased (reactive oxygen species; [6]): 2 µM
- ΔΨm [1, 3]: −0.054
- ΔΨm [1, 4]: −0.434
- mitoOX (mtOXPHOS transcripts; [3]): 0.398
- mitoOX (mtOXPHOS transcripts; [4]): 0.824
- GE-HTS (OXPHOS gene expression; [3]): 0.013
- GE-HTS (OXPHOS gene expression; [4]): 1.160
- GEHTS_Zscore (OXPHOS gene expression; [5]): 2.846
- OXPHOS expression (OXPHOS gene expression): boost OXPHOS expression
- dose at which OXPHOS expression increased (OXPHOS gene expression; [6]): 2 µM
- Viability (C2C12 myotubes; [3]): 0.064
- Viability (C2C12 myotubes; [4]): 0.512
- MTT [2, 3]: −2.797
- MTT [2, 4]: −2.060

SMILES: COc1cc(/C=C(\C#N)C(=O)Nc2nnc(C(F)(F)F)s2)ccc1OCc1ccc(C(F)(F)F)cc1C(F)(F)F [XCT790]
- effect of XCT790 on compound-induced Atp5a1 increase (Atp5a1; in combination with mebendazole or deoxysappanone B, 5 mM XCT790, FIG. 6d): completely inhibited
- effect of XCT790 on compound-induced MnSOD increase (Sod2): suppressible

SMILES: COc1ccc2c(c1)OCC(Cc1ccc(O)c(OC)c1)C2=O (centres unmarked) [deoxysappanone b 7,3′-dimethyl ether, reference compound]
- increase of Atp5a1 expression (Atp5a1): 20%
- expression of Ppargc1α (Ppargc1a): approximately threefold
- potency required for microtubule disruption (microtubules): the same as that required to affect OXPHOS expression and ROS level
- cyt c (cytochrome c; [7]): −0.951
- nucOXPHOS Z (nuOXPHOS transcripts; [8]): 2.25
- nucOX (nuOXPHOS transcripts; [7]): 2.250
- ROS Zscore (reactive oxygen species; [5]): −1.712
- ROS Zscore (reactive oxygen species; [9]): −1.712
- ROS (reactive oxygen species; [7]): −1.712
- dose at which ROS levels decreased (reactive oxygen species; [6]): 2 µM
- ΔΨm [1, 7]: −0.637
- mito-OXPHOS Z (mtOXPHOS transcripts; [8]): 1.38
- mitoOX (mtOXPHOS transcripts; [7]): 1.383
- GEHTS_Zscore (OXPHOS gene expression; [5]): 2.577
- GEHTS_Zscore (OXPHOS gene expression; [9]): 2.577
- GE-HTS (OXPHOS gene expression; [7]): 2.118
- dose at which OXPHOS expression increased (OXPHOS gene expression; [6]): 2 µM
- Viability (C2C12 myotubes; [7]): −1.120
- MTT [2, 7]: −2.870

SMILES: CC(=O)O[C@H]1C(=O)[C@@]2(C)[C@H]([C@H](OC(=O)c3ccccc3)[C@]3(O)C[C@H](OC(=O)[C@H](O)[C@@H](NC(=O)c4ccccc4)c4ccccc4)C(C)=C1C3(C)C)[C@]1(OC(C)=O)CO[C@@H]1C[C@@H]2O [paclitaxel, reference compound]
- potency required for microtubule disruption (microtubules): the same as that required to affect OXPHOS expression and ROS level
- ROS Zscore (reactive oxygen species; [5]): −1.967
- ROS levels (reactive oxygen species): suppressing ROS levels
- dose showing effect on ROS level (reactive oxygen species; [6]): 20 nM
- GEHTS_Zscore (OXPHOS gene expression; [5]): 2.451
- OXPHOS expression (OXPHOS gene expression): boost OXPHOS expression
- dose showing effect on OXPHOS expression (OXPHOS gene expression; [6]): 20 nM

SMILES: CC[C@@H](C)C(=O)O[C@H]1[C@H](O)[C@H]2[C@@H](CN3C[C@@H](C)CC[C@H]3[C@@]2(C)O)[C@@H]2C[C@]34O[C@]5(O)[C@@H](OC(=O)[C@](C)(O)[C@@H](C)O)CC[C@@]3(C)[C@@H]5[C@@H](OC(C)=O)[C@@H](OC(C)=O)[C@H]4[C@@]21O (stereo in doubt) [protoveratrine B]
- cyt c (cytochrome c; [10]): −1.085
- nucOX (nuOXPHOS transcripts; [10]): 0.058
- ROS (reactive oxygen species; [10]): 0.244
- ΔΨm [1, 10]: 0.942
- mitoOX (mtOXPHOS transcripts; [10]): −0.096
- GE-HTS (OXPHOS gene expression; [10]): 0.018
- Viability (C2C12 myotubes; [10]): 0.708
- MTT [2, 10]: 0.904

SMILES: C[C@@H]1C[C@@H]([C@H](O)CC2CC(=O)NC(=O)C2)C(=O)[C@@H](C)C1 [Cycloheximide, reference compound]
- nuOXPHOS elevated (Atp5a1; 1 μM, real-time PCR, FIG. 8c): 1.3 fold
- cyt c (cytochrome c; [11]): −1.378
- cyt c (cytochrome c; [10]): −2.123
- nucOX (nuOXPHOS transcripts; [11]): 1.354
- nucOX (nuOXPHOS transcripts; [10]): 0.688
- nuOXPHOS expression (nuOXPHOS transcripts; screen, relative to mtOXPHOS, in words): preferentially increase
- ROS (reactive oxygen species; [11]): −3.415
- ROS (reactive oxygen species; [10]): −2.628
- ΔΨm [1, 11]: 2.318
- ΔΨm [1, 10]: 2.759
- mitoOX (mtOXPHOS transcripts; [11]): −4.179
- mitoOX (mtOXPHOS transcripts; [10]): −5.637
- GE-HTS (OXPHOS gene expression; [11]): −0.504
- GE-HTS (OXPHOS gene expression; [10]): −1.482
- mtOXPHOS decreased (mt-Co1): 2.4 fold
- Viability (C2C12 myotubes; [11]): −2.540
- Viability (C2C12 myotubes; [10]): −2.804
- MTT [2, 11]: −3.550
- MTT [2, 10]: −3.499

SMILES: CC(C)NCC(O)c1cc(O)cc(O)c1 (centres unmarked) [metaproterenol]
- cyt c (cytochrome c): 0.339
- cyt c (cytochrome c; [12]): 0.212
- nucOX (nuOXPHOS transcripts; [12]): 0.138
- ROS (reactive oxygen species; [12]): 2.154
- ΔΨm [1, 12]: −1.005
- mitoOX (mtOXPHOS transcripts; [12]): −0.094
- GE-HTS (OXPHOS gene expression; [12]): 0.086
- Viability (C2C12 myotubes; [12]): 0.206
- MTT [2, 12]: −0.832

SMILES: O=c1cc(-c2ccc(O)cc2)oc2cc(O[C@@H]3O[C@H](CO)[C@@H](O)[C@H](O)[C@H]3O)cc(O)c12 [cosmosiin]
- cyt c (cytochrome c; [10]): −0.009
- nucOX (nuOXPHOS transcripts; [10]): −0.287
- ROS (reactive oxygen species; [10]): −0.052
- ΔΨm [1, 10]: 0.053
- mitoOX (mtOXPHOS transcripts; [10]): −0.611
- GE-HTS (OXPHOS gene expression; [10]): −0.433
- Viability (C2C12 myotubes; [10]): 0.141
- MTT [2, 10]: −0.801

SMILES: CC(=O)N[C@@H](CC(=O)N[C@@H](CCC(=O)O)C(=O)O)C(=O)O [spaglumic acid]
- cyt c (cytochrome c): 0.600
- cyt c (cytochrome c; [12]): 0.191
- nucOX (nuOXPHOS transcripts; [12]): 0.307
- ROS (reactive oxygen species; [12]): 0.615
- ΔΨm [1, 12]: −0.685
- mitoOX (mtOXPHOS transcripts; [12]): −0.284
- GE-HTS (OXPHOS gene expression; [12]): 0.120
- Viability (C2C12 myotubes; [12]): −0.009
- MTT [2, 12]: −0.779

SMILES: C[C@@H]1O[C@@H](O[C@H]2[C@H](O[C@H]3CC[C@@]4(C)[C@@H](CC[C@]5(C)[C@@H]4CC=C4[C@@H]6CC(C)(C)CC[C@]6(C(=O)O)CC[C@]45C)[C@]3(C)CO)OC[C@H](O)[C@@H]2O)[C@H](O)[C@H](O)[C@H]1O [sapindoside A]
- cyt c (cytochrome c; [10]): −4.058
- nucOX (nuOXPHOS transcripts; [10]): −1.786
- ROS (reactive oxygen species; [10]): −2.825
- ΔΨm [1, 10]: −3.760
- mitoOX (mtOXPHOS transcripts; [10]): 0.322
- GE-HTS (OXPHOS gene expression; [10]): −1.176
- Viability (C2C12 myotubes; [10]): −3.886
- MTT [2, 10]: −4.558
